Where “and” joins values, the source holds several entries; their conditions need not be identical. Equal entries are not always repeated.
Columns and labels:
[1] = tested on: HEK293 (human embryonic kidney) cells expressing the viral Orf10 protein; assay type: cell-based
[2] = tested on: Type I interferons; experiment: Interferon types after CBD treatment, summary over transfections; assay type: cell-based, human; details: summary statement, transfection not specified
[3] = tested on: HEK293 (human embryonic kidney) cells expressing the viral Orf8 protein; assay type: cell-based
[4] = tested on: HEK293 (human embryonic kidney) cells transfected with plasmid expressing viral protein ORF8; experiment: Apoptosis assay (pSIVA early, propidium iodide late), ORF8; assay type: cell-based; details: ORF8, 24 hours
Excerpt: (§1) 2. […] These transfections are done in duplicate.

[5] = tested on: HT22 hippocampal neurons; details: 5 μM CBD, oxygen-glucose deprivation; cited from earlier work
[6] = tested on: TNFα, IL-6, IL-4, IL-13, IL-10, and IL-5; details: asthma induced animals treated with Cannabidiol vs asthma induced animals; cited from earlier work
[7] = tested on: HEK293 (human embryonic kidney) cells transfected with control plasmid pCMV-3Tag-3A; experiment: Apoptosis assay (pSIVA early, propidium iodide late), control plasmid; assay type: cell-based; details: 24 hours, normalized to crystal violet
Excerpt: as §1

[8] = tested on: normal cells; experiment: Inhouse work on cell death, normal cells (unpublished data); assay type: cell-based
[9] = tested on: HEK293 (human embryonic kidney) cells transfected with plasmid expressing M protein; experiment: Apoptosis assay (pSIVA early, propidium iodide late), M protein; assay type: cell-based
Excerpt: as §1

[10] = tested on: interferon and interferon-induced antiviral effector gene expression in cells expressing M-protein; experiment: qPCR of interferons and effector gene expression, M-protein; assay type: cell-based, human
[11] = tested on: metabolically dysregulated cells; experiment: Inhouse work on cell death, metabolically dysregulated cells (unpublished data); assay type: cell-based
[12] = target: CB2 receptor (Homo sapiens, UniProt P34972); details: cited from earlier work
[13] = tested on: HEK293 (human embryonic kidney) cells expressing the viral M protein; experiment: BrdU incorporation colorimetric ELISA, cells expressing viral M protein; assay type: cell-based; details: 1 μM, 24 hours, not normalized to cell number (FIG. 5)

CB2 receptor, sequence (P34972 whole entry): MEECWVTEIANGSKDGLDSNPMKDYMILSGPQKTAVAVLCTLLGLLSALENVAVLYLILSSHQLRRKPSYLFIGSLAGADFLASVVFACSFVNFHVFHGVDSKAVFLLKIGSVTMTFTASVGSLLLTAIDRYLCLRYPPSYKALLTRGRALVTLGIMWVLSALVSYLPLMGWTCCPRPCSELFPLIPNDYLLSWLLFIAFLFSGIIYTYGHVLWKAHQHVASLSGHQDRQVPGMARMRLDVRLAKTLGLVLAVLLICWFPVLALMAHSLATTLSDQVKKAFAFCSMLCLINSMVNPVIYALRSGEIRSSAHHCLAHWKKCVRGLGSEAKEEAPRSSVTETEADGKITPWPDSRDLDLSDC

For CCCc1cc(O)c2c(c1)OC(C)(C)[C@@H]1CC=C(C)C[C@@H]21 [delta 8-tetrahydrocannabivarin], the “BrdU incorporation relative to untreated cells” value [1] was “less reduction”.
With C=C(C)[C@@H]1CCC(C)=C[C@H]1c1c(O)cc(CCCCC)cc1O [Cannabidiol, 2-[(1R,6R)-3-Methyl-6-(1-methylethenyl)-2-cyclohexen-1-yl]-5-pentyl-1,3-benzenediol] the “change in Type I interferons as a result of CBD treatment” value [2] was “not much change”, the “mean BrdU incorporation lower than in cells expressing Orf8 but untreated with cannabinoids” value [3] was 37.28% and 43.52% and the “early apoptosis (pSIVA)” value ([4]; vs vehicle-treated ORF8 cells and vs Cannabidiol-treated control vector cells (FIG. 8A)) was “significant increases”. The “late apoptosis (propidium iodide)” value ([4]; vs vehicle-treated ORF8 cells and vs Cannabidiol-treated control vector cells (FIG. 8B)) was “significant increases”, the “apoptosis and oxidative stress” value [5] was “significantly attenuated” and the “levels of all cytokines (TNFα, IL-6, IL-4, IL-13, IL-10, IL-5)” value [6] was “reduced significantly”. For the same molecule, the “early apoptosis (pSIVA)” value [7] was “do not show any significant increase”, the “late apoptosis (propidium iodide)” value [7] was “do not show any significant increase” and the “early apoptosis (pSIVA)” value ([7]; listed as CBD) was “did not alter”. For the same molecule, the “late apoptosis (propidium iodide)” value ([7]; listed as CBD) was “did not alter”, the cell death [8] was “no effect” and the “early apoptosis (pSIVA)” value ([9]; relative to M protein cells treated only with vehicle (FIG. 15A)) was “significantly elevated”. For the same molecule, the “late apoptosis (propidium iodide)” value ([9]; relative to M protein cells treated only with vehicle (FIG. 15B)) was “significantly elevated”, the “mean BrdU incorporation lower than in cells expressing Orf10 but untreated with cannabinoids” value [1] was 30.44% and the OAS1 gene expression ([10]; M protein, 1 μM CBD vs vehicle-treated cells, 24 hours (FIG. 18)) was “significantly greater expression”. The “INF-lambda 1 expression” value ([10]; M-protein, 1 μM CBD, 24 hours (FIG. 16A)) was “induced”, the “INF-lambda 2/3 expression” value ([10]; M-protein, 1 μM CBD, 24 hours (FIG. 16B)) was “induced” and the “IFIT1 augmentation compared with cells expressing control plasmid” value ([10]; M-protein, 1 μM CBD, 24 hours (FIG. 19)) was “lower”. For the same molecule, the Mx1 gene expression ([10]; M-protein, 1 μM CBD, 24 hours, vs Cannabidiol-treated cells expressing only control plasmid (FIG. 17)) was “significantly greater extent”, the cell death [11] was “decreases cell death” and the “binding to CB2 receptor” value [12] was “very weakly”. The “mean BrdU incorporation lower than in cells expressing M protein but untreated with cannabinoids” value [13] was 37.28%.

Source: US20240226120A1 (priority 2020, published 2024)
